Patent US6716829B2, “Aldosterone antagonist and cyclooxygenase-2 inhibitor combination therapy to prevent or treat inflammation-related cardiovascular disorders” (Pharmacia Corporation, priority 2000, dated 2004)
“And” between values parts separate entries of the source, which are not always exact repeats. Equal values may be shown once. “Also recorded” adds a separate entry of the source.

Key:
myocardial injury = assay: Assay C: histopathologic analysis, semi-quantitative myocardial injury score 0 to 4; assay type: in vivo, Male Sprague-Dawley rats; conditions: for Myocardial injury / vascular inflammatory damage (histopathology): aldosterone + salt, 7, 14, 30 days, eplerenone 100 mg/kg/day; for Myocardia 1 Necrosis (0-4): eplerenone dose 100 mg/kg/day
Procedure: The procedure of Assay B was expanded upon in a further study. […] Myocardial tissue from animals in each treatment group was examined after 7, 14, or 30 days of treatment. […] Lesions were preceded by the expression and progressive upregulation of proinflammatory molecules. […] Prior to surgery the animals were individually weighed and placed in one of the following groups: […] Potassium chloride supplementation was added to the saline solution in order to prevent the potential hypokalemia associated with aldosterone excess. […] Louis, Mo.) was inserted subcutaneously at the nape of the neck. Aldosterone was administered at a dose of 0.75 µg/hour. […] Animals were sacrificed from each group (n=8-13) after 7, 14, or 30 days of treatment. Following exsanguination, hearts and kidneys were isolated, removed, rinsed in cold phosphate-buffered saline, and blotted dry. […] The equatorial regions of the heart were routinely processed into paraffin with an automated tissue processor (Hypercenter XP, Shandon/Lipshaw Inc., Pittsburgh, Pa.) and embedded into fresh paraffin apical side down (Shandon Embedding Center, Shandon/Lipshaw Inc.). Five and 10 µm sections were cut from each block of tissue using a Leica RM2035 rotary microtome (Leica Inc., Houston, Tex.) and mounted on Superfrost/Plus microscope slides (Fisher Scientific, Pittsburgh, Pa.). Ten […]m sections were stained with the collagen specific stain, Picrosirius Red F3BA (Saturated Picric Acid (Sigma Chemical, St. […] Waterbury, Conn.) (6). Mounted tissues were hydrated with water. […] Slides were coverslipped with #1 cover glass using Permount Histological Mounting Media (Fisher Scientific). Two slides mounted with 5 µm sections were cut for each animal. One slide was processed for H&E staining and one for Periodic Acid Schiff (PAS) staining. The H&E and PAS were used for pathological scoring of the hearts. Semi-quantification of myocardial injury was performed as described previously with minor modifications (7). Briefly, a scale from 0 to 4 was used to score the level of myocardial injury. A score of 0 represented no damage. […] Myocardial necrosis was defined as the presence of necrotic changes in cardiomyocytes such as nuclear pyknosis or karyolysis, non-contracting marginal wavy fibers and hypereosinophilia of the cytoplasm, or clear evidence of destruction of the cardiomyocyte membrane.

[1] = test system: marker proteins (osteopontin, ED-1, CD-3, ICAM-1, VCAM-1); assay: Assay C: immunohistochemistry of myocardial tissue (osteopontin, ED-1, CD-3, ICAM-1, VCAM-1); assay type: in vivo, Male Sprague-Dawley rats; conditions: aldosterone + salt treated rats; eplerenone 100 mg/kg/day
Procedure: The procedure of Assay B was expanded upon in a further study. […] Myocardial tissue from animals in each treatment group was examined after 7, 14, or 30 days of treatment. […] Lesions were preceded by the expression and progressive upregulation of proinflammatory molecules.
Potassium chloride supplementation was added to the saline solution in order to prevent the potential hypokalemia associated with aldosterone excess.
At the time of the surgery, an Alzet 2002 osmotic minipump (Alza Corp., Palo Alto, Calif.) containing either vehicle (9% ethanol/87% propylene glycol/4% dH2O) or 1.0 mg/mL d-aldosterone (Sigma Chemical, St. Louis, Mo.) was inserted subcutaneously at the nape of the neck. Aldosterone was administered at a dose of 0.75 µg/hour. […] Animals were sacrificed from each group (n=8-13) after 7, 14, or 30 days of treatment.
The equatorial regions of the heart were routinely processed into paraffin with an automated tissue processor (Hypercenter XP, Shandon/Lipshaw Inc., Pittsburgh, Pa.) and embedded into fresh paraffin apical side down (Shandon Embedding Center, Shandon/Lipshaw Inc.). Five and 10 µm sections were cut from each block of tissue using a Leica RM2035 rotary microtome (Leica Inc., Houston, Tex.) and mounted on Superfrost/Plus microscope slides (Fisher Scientific, Pittsburgh, Pa.). […]

[2] = test system: coronary arteries of angiotensin II/salt-treated animals; assay: Assay A: heart histology (hematoxylin&eosin), vascular inflammatory lesions and myocardial injury; assay type: in vivo, Male Wistar rats; conditions: eplerenone 100 mpk; for Vascular inflammation and myocardial injury in the heart: angiotensin II infused rats, aldosterone replacement in adrenalectomized rats
From the text: Sacrifice by exanguination after 4 weeks. Blood was be collected in dry tubes for determination of serum electrolytes and in EDTA-containing tubes for measurement of aldosterone and corticosterone levels Hearts were stained with hematoxylin&eosin and have been analyzed for determination of morphologic abnormalities (i.e. necrosis, vascular injury).

[3] = 7-day protocol, score 0-4, individual rats and group Mean
[4] = group mean, data used for Table 15 (14 days of treatment)
[5] = group mean, data used for Table 16 (30 days of treatment)
[6] = mean ± SEM after 7 days of treatment
[7] = mean ± SEM after 14 days of treatment
[8] = mean ± SEM after 30 days of treatment

## C[C@]12CCC(=O)C=C1CC[C@@H]1[C@@H]2[C@@H](O)C[C@]2(C=O)[C@@H](C(=O)CO)CC[C@@H]12 [Aldosterone]
Myocardial injury; [3]
  Myocardial Necrosis (0-4): 0.0
Myocardial injury
  Myocardial injury / vascular inflammatory damage (histopathology): focal arterial and myocardial alterations were observed starting at 14 days; also recorded: induced vascular inflammation and cardiac tissue damage
Myocardial injury; [4]
  Myocardial Necrosis (0-4): 0.8
Myocardial injury; [5]
  Myocardial Necrosis (0-4): 2.0
Myocardial injury; individual rats, data used for Table 15 (14 days of treatment), incl. rat marked * excluded from statistics, listed as Aldosterone + salt
  Myocardial Necrosis (0-4): 0.0 (7×) and 1.0 (3×) and 3.0 (3×)
Myocardial injury; individual rats, data used for Table 16 (30 days of treatment), incl. rat marked * excluded from statistics, listed as Aldosterone + salt
  Myocardial Necrosis (0-4): 1.5 and 2.5 and 3.0 (2×) and 2.0 (2×) and 0.5 and 0.3 and 3.5
Myocardial injury; [6]
  Myocardia 1 Necrosis (0-4): 0.0 ± 0.0
Myocardial injury; [7]
  Myocardia 1 Necrosis (0-4): 0.8 ± 0.3
Myocardial injury; [8]
  Myocardia 1 Necrosis (0-4): 2.0 ± 0.4
[1]
  Staining in myocardial tissue for marker proteins (immunohistochemistry): Significant expression of osteopontin
[2]
  Vascular inflammation and myocardial injury in the heart: restored the severe coronary and myocardial inflammation and injury

## COC(=O)[C@@H]1CC2=CC(=O)CC[C@]2(C)[C@@]23O[C@@H]2C[C@@]2(C)[C@@H](CC[C@@]24CCC(=O)O4)[C@H]13 [Eplerenone]
Myocardial injury; [3]
  Myocardial Necrosis (0-4): 0.0
Myocardial injury
  Myocardial injury / vascular inflammatory damage (histopathology): markedly attenuated
Myocardial injury; [4]
  Myocardial Necrosis (0-4): 0.5
Myocardial injury; [5]
  Myocardial Necrosis (0-4): 0.0
Myocardial injury; individual rats, data used for Table 15 (14 days of treatment), incl. rat marked * excluded from statistics, listed as Eplerenone + aldosterone + salt
  Myocardial Necrosis (0-4): 1.0 (3×) and 0.0 (7×) and 2.0
Myocardial injury; individual rats, data used for Table 16 (30 days of treatment), incl. rat marked * excluded from statistics
  Myocardial Necrosis (0-4): 0.0
Myocardial injury; [6]
  Myocardia 1 Necrosis (0-4): 0.0 ± 0.0
Myocardial injury; [7]
  Myocardia 1 Necrosis (0-4): 0.5 ± 0.2
Myocardial injury; [8]
  Myocardia 1 Necrosis (0-4): 0.0 ± 0.0
[1]
  Staining in myocardial tissue for marker proteins (immunohistochemistry): markedly blunted
[2]
  Vascular inflammation and myocardial injury in the heart: prevention
[2]; of ten animals per group, angiotensin II/salt, 4 weeks
  Animals with vascular inflammatory changes (lesions) in the coronary arteries: one of the ten
